Measurements reported in patent US8093388B2, “3-aza spiro[5,5]undec-8-ene derivatives and their use as monoamine neurotransmitter re-uptake inhibitors” (Neurosearch A/S, priority 2005, dated 2012).
Read-outs that look alike come from different tables or passages of the source.

How the values were obtained:
[1] = target: T1, reuptake of noradrenaline (NA) in synaptosomes (Rattus norvegicus, UniProt Q9WTR4); assay: Inhibition of noradrenaline (NA) reuptake in synaptosomes; format: biochemical; details: 3H-NA, read-out: NA-uptake IC50
T1 construct: in synaptosomes as described in WO 97/16451; from tissue
T1 sequence (Q9WTR4 1-597): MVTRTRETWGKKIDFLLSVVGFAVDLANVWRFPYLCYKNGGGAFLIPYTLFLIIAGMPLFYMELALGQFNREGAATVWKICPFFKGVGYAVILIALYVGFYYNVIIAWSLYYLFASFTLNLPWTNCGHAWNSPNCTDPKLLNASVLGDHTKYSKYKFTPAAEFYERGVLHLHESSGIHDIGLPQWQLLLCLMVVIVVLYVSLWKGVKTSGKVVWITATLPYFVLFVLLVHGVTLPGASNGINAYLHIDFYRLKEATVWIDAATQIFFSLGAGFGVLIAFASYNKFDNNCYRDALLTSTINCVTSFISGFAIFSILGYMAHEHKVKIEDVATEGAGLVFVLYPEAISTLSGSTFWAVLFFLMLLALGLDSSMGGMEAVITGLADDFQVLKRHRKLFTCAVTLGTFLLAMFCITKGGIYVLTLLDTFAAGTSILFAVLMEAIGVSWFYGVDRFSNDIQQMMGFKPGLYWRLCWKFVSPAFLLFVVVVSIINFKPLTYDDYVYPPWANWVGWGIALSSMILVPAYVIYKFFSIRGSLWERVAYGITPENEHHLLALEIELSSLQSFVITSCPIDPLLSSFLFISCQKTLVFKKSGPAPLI
Description: (§1) Compounds of the invention may be tested for their ability to inhibit reuptake of the monoamines dopamine, noradrenaline and serotonin in synaptosomes e.g. such as described in WO 97/30997. Based on the balanced activity observed in these tests the compound of the invention is considered useful for the treatment, prevention or alleviation of a disease or a disorder or a condition of a mammal, including a human, which disease, disorder or condition is responsive to inhibition of monoamine neurotransmitter re-uptake in the central nervous system.
(§2) A number of compounds were tested for their ability to inhibit the reuptake of the monoamine neurotransmitters dopamine (DA) noradrenaline (NA) and serotonine (5-HT) in synaptosomes as described in WO 97/16451.
(§3) The test values are given as IC50 (the concentration (μM) of the test substance which inhibits the specific binding of ^3H-DA, ^3H-NA, or ^3H-5-HT by 50%).

[2] = target: T2, reuptake of serotonine (5-HT) in synaptosomes (Rattus norvegicus, UniProt P31652); assay: Inhibition of serotonine (5-HT) reuptake in synaptosomes; format: biochemical
T2 construct: in synaptosomes as described in WO 97/16451; from tissue
T2 sequence (P31652 whole entry): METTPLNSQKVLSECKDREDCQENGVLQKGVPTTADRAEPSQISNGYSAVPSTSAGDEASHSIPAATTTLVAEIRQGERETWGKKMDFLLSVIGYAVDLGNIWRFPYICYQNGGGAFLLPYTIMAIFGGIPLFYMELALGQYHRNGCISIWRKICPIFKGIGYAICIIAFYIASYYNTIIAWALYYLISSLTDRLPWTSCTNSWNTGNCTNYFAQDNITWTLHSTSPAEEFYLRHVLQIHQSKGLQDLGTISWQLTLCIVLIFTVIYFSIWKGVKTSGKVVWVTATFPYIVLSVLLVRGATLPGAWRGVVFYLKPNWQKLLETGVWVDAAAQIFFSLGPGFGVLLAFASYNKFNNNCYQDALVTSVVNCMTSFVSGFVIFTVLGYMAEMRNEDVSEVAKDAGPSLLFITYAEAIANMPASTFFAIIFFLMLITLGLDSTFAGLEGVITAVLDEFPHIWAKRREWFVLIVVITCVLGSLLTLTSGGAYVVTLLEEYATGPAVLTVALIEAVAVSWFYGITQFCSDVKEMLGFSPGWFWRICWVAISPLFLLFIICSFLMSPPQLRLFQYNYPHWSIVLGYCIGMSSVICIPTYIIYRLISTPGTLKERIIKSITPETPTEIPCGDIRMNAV
Description: as §1, §2, §3

[3] = target: T3, reuptake of dopamine (DA) in synaptosomes (Rattus norvegicus, UniProt P23977); assay: Inhibition of dopamine (DA) reuptake in synaptosomes; format: biochemical; details: 3H-DA, read-out: DA-uptake IC50
T3 construct: in synaptosomes as described in WO 97/16451; from tissue
T3 sequence (P23977 whole entry): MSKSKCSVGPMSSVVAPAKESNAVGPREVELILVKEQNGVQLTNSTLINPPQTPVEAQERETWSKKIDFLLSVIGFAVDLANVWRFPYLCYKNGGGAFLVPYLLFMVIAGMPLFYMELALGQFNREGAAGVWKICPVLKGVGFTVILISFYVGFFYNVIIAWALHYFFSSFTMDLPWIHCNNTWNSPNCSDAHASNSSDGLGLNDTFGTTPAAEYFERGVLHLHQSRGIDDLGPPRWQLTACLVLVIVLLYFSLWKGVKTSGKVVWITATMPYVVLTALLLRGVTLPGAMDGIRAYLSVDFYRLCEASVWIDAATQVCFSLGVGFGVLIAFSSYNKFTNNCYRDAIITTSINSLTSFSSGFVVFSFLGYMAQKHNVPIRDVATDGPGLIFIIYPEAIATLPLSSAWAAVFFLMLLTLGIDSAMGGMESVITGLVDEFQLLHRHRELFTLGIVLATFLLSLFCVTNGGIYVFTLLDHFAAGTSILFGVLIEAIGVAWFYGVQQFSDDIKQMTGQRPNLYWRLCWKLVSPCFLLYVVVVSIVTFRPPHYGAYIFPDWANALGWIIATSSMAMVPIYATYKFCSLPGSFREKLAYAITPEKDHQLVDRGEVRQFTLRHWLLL
Description: as §1, §2, §3

[4] = synaptosomes, 3H-5-HT, read-out: 5-HT-uptake IC50

| Structure (SMILES) | IC50 [1] [nM] | IC50 [2, 4] [nM] | IC50 [3] [nM] | melting point [°C] | IC50 [2] [nM] |
| --- | --- | --- | --- | --- | --- |
| COc1ccc2cc(C3=CCC4(CCNCC4)CC3)ccc2c1 [4th compound of method A, 9-(6-Methoxy-naphthalen-2-yl)-3-aza-spiro[5.5]undec-8-ene] | 120 | 16 | 38 | 146.9 to 149.5 | – |
| CN1CCC2(CC=C(c3cc4ccccc4o3)CC2)CC1.O=C(O)/C=C/C(=O)O | – | – | – | 224.2 to 226.1 | – |
| C1=C(c2ccc3ccccc3c2)CCC2(C1)CCNCC2 [9-Naphthalen-2-yl-3-aza-spiro[5.5]undec-8-ene] | – | – | – | 137.1 to 141.3 | – |
| C1=C(c2cc3ccccc3s2)CCC2(C1)CCNCC2 [2nd compound of method A, 9-Benzo[b]thiophen-2-yl-3-aza-spiro[5.5]undec-8-ene] | 580 | 20 | 1200 | 107.3 to 110.2 | – |
| COc1cc(C2=CCC3(CCNCC3)CC2)ccc1Cl [9-(4-Chloro-3-methoxy-phenyl)-3-aza-spiro[5.5]undec-8-ene] | – | – | – | 182 to 185 | – |
| Brc1cccc(C2=CCC3(CCNCC3)CC2)n1 [2nd last compound of method A, 9-(6-Bromo-pyridin-2-yl)-3-aza-spiro[5.5]undec-8-ene] | 1000 | – | 2000 | 161.3 to 162.8 | 18 |
| COc1ccc2cc(C3=CCC4(CC3)CCN(C)CC4)ccc2c1 [9-(6-Methoxy-naphthalen-2-yl)-3-methyl-3-aza-spiro[5.5]undec-8-ene] | – | – | – | 146.9 to 149.5 | – |
| CN1CCC2(CC=C(c3cc4ccccc4s3)CC2)CC1 [9-Benzo[b]thiophen-2-yl-3-methyl-3-aza-spiro[5.5]undec-8-ene] | – | – | – | 89.7 to 91.2 | – |
| C1=C(c2cc3ccccc3o2)CCC2(C1)CCNCC2.O=C(O)C(F)(F)F | – | – | – | 215.7 to 217.3 | – |
| Clc1ccc(C2=CCC3(CCNCC3)CC2)cc1 | – | – | – | 104.2 to 107.1 | – |
